From paper PMC4569013, “Massive Bioaccumulation and Self‐Assembly of Phenazine Compounds in Live Cells” (Advanced Science, 2015)
pIC50: −log10 of the molar value.

What was measured:
[1] = test system: RAW264.7 macrophages; test: Confocal fluorescence microscopy, intracellular localization of inclusions; format: cell-based; settings: 5 × 10^−6 M, 72 h, live cells
Protocol: (§1) Confocal Fluorescent Microscopy: A Nikon A1 confocal microscope was used for further investigation of live cells incubated with chiral pairs of compounds (T and U) and the parent compound, P. Since crystals or vesicular forms containing chemicals inside the cells incubated with Compound P, T, or U were fluorescent when viewed with the TRITC filter sets, intracellular distribution of these compounds in RAW264.7 or MDCK cells were visualized using a Nikon A1 confocal microscopy (Nikon Instruments Inc., Melville, NY) equipped with diode‐based lasers and a Nikon Apo 60×/1.4 NA oil immersion lens. Briefly, RAW264.7 macrophages or MDCK epithelial cells were seeded in the 8‐well Nunc Lab‐Tek II chambered (#1.5) cover glasses (Thermo Scientific, Pittsburgh, PA) at a density of 8 × 10^3 cells cm^−2 (RAW264.7 cells) or 1.5 × 10^4 cells cm^−2 (MDCK cells) and allowed to adhere overnight (37 °C, 5% CO2). Then, 5 × 10^−6 M of Compound “P” or the related isomers, “T” or “U” in DMEM with 5% FBS (300 μL) was added to the cells and the cells were incubated for 72 h (37 °C, 5% CO2). For live cell imaging, after the removal of media, cells were washed with HBSS buffer twice. Hoechst 33342 (Invitrogen, Carlsbad, CA) was used for staining cell nuclei and FM 1‐43 (Molecular Probes T35356, Invitrogen) for the plasma membrane. Cells were incubated with 300 μL of 1:1 (v/v) dye mixtures of 5 μg mL^−1 Hoechst 33342 and 7 × 10^−6 M FM 1‐43 in HBSS for 15 min at room temperature. Without fixative, the confocal imaging of the live cells was performed using lasers for DAPI (excitation/emission wavelength: 405 nm/450 ± 25 nm), FITC (488 nm/525 ± 25 nm), and TRITC (561 nm/596 ± 25 nm) channels. Z‐stack images of the cells were captured along the Z‐axis (interval, 1 μm) in three fluorescence channels and analyzed by using the Nikon NIS‐Elements 3.2 confocal software (Nikon Instruments Inc., Melville, NY). […]

[2] = test system: MDCK epithelial cells; test: as above; format: cell-based, Canine; settings: 5 × 10^−6 M, 72 h, live cells
Protocol: as §1

[3] = test system: RAW264.7 macrophages; test: Cell accumulation experiment, transmitted light microscopy of cellular staining pattern; format: cell-based; settings: for Inferred uptake: inferred from staining pattern after 72 hour incubation; for Observed cellular staining pattern (Notes): live cells, 72 hour incubation, 5 × 10^−6 M (2.5 × 10^−6 M for I); for Staining in fixed cells: methanol-fixed cells incubated 72 h with compound (control); for Cellular staining relative to clofazimine: live macrophages, 72 h
Protocol: Cell Accumulation Experiments and Transmitted Light Microscopic Examination: […] After a 24 h incubation (37 °C, 5% CO2), cells were incubated with solution of clofazmine or its chemical derivatives (300 μL of 5 × 10^−6 m concentration; measured cell viability ranging from 85% to 97% for all compounds tested at this concentration; Figure 1) in DMEM (no phenol red; plus 1 × 10^−3 M sodium pyruvate and 5% FBS). For Compound “I,” 2.5 × 10^−6 M of compound solution in media was used for the RAW 264.7 macrophages incubation because of lower cell viability at higher concentrations (IC50 = (3.95 ± 0.11) × 10^−6 M). A solution of clofazmine or other chemical derivatives was made by a diluting stock solutions (2.5 × 10^−3 M in DMSO; 10 × 10^−3 M stock in DMSO were stored at −80 °C for further use) into DMEM with 5% FBS. […] The extracellular concentration of each compound in each well was maintained by daily replacement of the compound‐containing media. After 72 h of incubation with clofazmine or its derivatives, compound‐containing media were removed and cells were washed twice with media. Live cells in the chambered glasses were examined under inverted transmitted light microscopy (Nikon Eclipse Ti microscope) with a 40× objective and color camera. As a control experiment, fixed cells were also microscopically examined after incubation with the compounds. Cells were seeded on the chambered cover glasses at the density of 1.5 × 10^4 cells cm^−2 (RAW264.7 macrophages) or 2.5 × 10^4 cells cm^−2 (MDCK epithelial cells). After an overnight incubation (37 °C, 5% CO2), media was removed from the wells and cold methanol (−20 °C) was added to each well. After 30 s, remaining methanol was removed by washing with media with 5% FBS. Fixed cells were incubated (37 °C, 5% CO2) with clofazmine or derivatives (300 μL of 5 × 10^−6 M; 2.5 × 10^−6 M for I) in media with 5% FBS. After 72 h, fixed RAW264.7 or MDCK cells were washed with media and examined using the same transmitted microscopy conditions as the live cells.

[4] = test system: RAW264.7 macrophages; test: XTT colorimetric cytotoxicity assay; format: cell-based; settings: Mus musculus, RAW 264.7 macrophages, 72 h incubation, read-out: IC50 (cell viability, XTT)
Protocol: Cytotoxicity Measurements: A 3′‐bis(4‐methoxy‐6‐nitro)benzene‐sulfonic acid hydrate (XTT) colorimetric assay was performed to assess the cytotoxicity of the clofazmine derivatives in RAW264.7 macrophages or MDCK epithelial cells using a Cell Proliferation Kit II (Roche Chemicals, Indianapolis, IN). […] The absorbance value in each well was measured at 495 nm against a reference wavelength at 650 nm using a microplate reader (Synergy 2, BioTek Instruments, Winooski, VT). […] The IC50 value for each compound was calculated from the concentration‐response curve generated by a nonlinear regression (curve fit) method in GraphPad Prism version 5.0 (GraphPad Software, Inc., San Diego, CA). The concentration of clofazimine or its chemical derivatives used for further in vitro cell studies was determined based on cell viability (%) assay results (see the next section).

[5] = test system: MDCK epithelial cells; test: Linear diattenuation anisotropy microscopy (LC-PolScope) of intracellular inclusions; format: cell-based, Canine; settings: 72 h, compared with clofazimine
Protocol: (§2) The optical design was built on a Nikon Eclipse Ti microscope equipped with the liquid crystal universal compensator consisting of a linear polarizer and a pair of liquid crystal devices. The LC compensator was part of the transillumination path and was used to illuminate the specimen with monochromatic, linearly polarized light of varying polarization orientation. There was no polarization analyzer present in the imaging path. Quantitative intensity images were recorded by a charge‐coupled device camera and a desktop computer calculated the average transmittance, the differential transmittance and the polarization orientation leading to maximum transmittance for each optically resolved picture element (pixel). Acquisition and processing steps were controlled using OpenPolScope plugins for the open source imaging programs ImageJ and Micro‐Manager (MMStudio version 1.4.15). With the combination of hardware and software, polarized light images were acquired at high sensitivity and high spatial resolution for measuring linear diattenuation.
(§3) Linear Diattenuation Microscopy Data Acquisition and Analysis: After RAW264.7 macrophages or MDCK epithelial cells were incubated with the compound in the chambered cover glasses for 72 h, at the same time of performing transmitted microscopic examination, cell specimens were examined under linear diattenuation microscopy using the Nikon Eclipse Ti microscope with 40×/0.75 NA objective and monochromatic light of two different center wavelengths, 546 and 623 nm (passband 30 nm). In the OpenPolScope software, Pol‐Acquisition and Pol‐Analyzer plugins (version 2.0) were used to capture, process, and analyze the attenuation images. Before imaging the samples, the setup was calibrated using a specially prepared slide featuring four small pieces of linear polarization filters. The transmission axes of the filters were oriented in steps of 45° providing a means to calibrate the LC universal compensator settings. After the calibration, a sample slide was inserted and first a sequence of polarized light images of a clear, fully transmitting sample area was recorded, followed by an image sequence featuring the cells under investigation. The images of the clear area were used to determine instrument factors which were needed for computing the average and the polarization dependent loss in transmittance in cellular components visible in the second image.10
(§4) Linear diattenuation is a material property that can occur in materials such as crystals, in which the light absorbing molecules are arranged with a preferred orientation. The molecular alignment creates principal axes in the material denoting polarization directions for which light is maximally and minimally transmitted. Diattenuation is the difference between maximal (T max) and minimal (T min) transmittance, divided by their sum (Equation (1)): (1) Diattenuation=Tmax‐Tmin/Tmax+Tmin
(§5) To simultaneously measure the attenuation of many crystals with arbitrary orientations, we developed algorithms based on four specimen images, each recorded using light of a different polarization orientation: 0°, 45°, 90°, and 135°.10 The four raw images were used to calculate the average and differential transmittance and the orientation of maximum transmittance in every resolved image pixel. To isolate and analyze quantitative data of the objects (crystals), the anisotropy or maximum transmittance axis orientation image file opened in ImageJ was inverted (Ctrl + Shift + I) and thresholded using ImageJ's default automatic method (“Binary” → “Convert to Mask”). By using the ImageJ's algorithm, “Analyze Particles,” data of anisotropy or maximum transmittance axis orientation of objects in images could be obtained automatically. Diattenuation ratios were calculated by dividing anisotropy at 623 nm by that at 546 nm.

[6] = test system: RAW264.7 macrophages; test: Cell associated mass measurements (bioaccumulation, pmole/cell); format: cell-based; settings: 72 h incubation, normalized by number of cells
Protocol: Cell Associated Mass Measurements: […] After an overnight incubation (37 °C, 5% CO2), cells were incubated with 100 μL of the media (DMEM with 5% FBS) containing 5 × 10^−6 M clofazmine or its chemical derivatives (2.5 × 10^−6 M of Compound “I”). Media containing each compound was replaced every day during the 72 h incubation. After the incubation, media was removed and cells were washed with Hank's balanced salt solution (HBSS) buffer (No. 14025; Invitrogen) twice. RAW264.7 macrophage cells in buffer were scraped and MDCK epithelial cells were exposed to Trypsin‐EDTA solution for detachment from the plates for cell number counting and quantification of cell‐associated masses. After centrifugation (650 × g), supernatant was removed and cell pellets were resuspended in 0.1 M citric acid/0.1 M trisodium citrate buffer (pH 5) for cell counting as previously reported.7 Equal numbers of cells in 100 μL in buffer were transferred to 96 well plates and 100 μL of detergent (ATCC, 30‐1010K) was added into wells for cell lysis. Chemical absorbance from each well was measured by the UV–vis microplate reader (Synergy 2, BioTek Instruments, Winooski, VT) at 490 nm wavelength and cell‐associated mass of each compound was calculated by a standard curve generated separately using the same media and presented as pmole/cell by normalizing the amount of chemical in each cell population sample by the number of cells in each sample.

[7] = test system: RAW264.7 macrophages; test: Linear diattenuation anisotropy microscopy (LC-PolScope) of intracellular inclusions; format: cell-based; settings: 72 h, compared with clofazimine
Protocol: as §2, §3, §4, §5

| Structure (SMILES) | Intracellular localization of compound (fluorescence, TRITC channel) [1] | Intracellular localization of compound (fluorescence, TRITC channel) [2] | Inferred uptake [3] | Observed cellular staining pattern (Notes) [3] | Staining in fixed cells [3] | pIC50 [4] | Cellular staining relative to clofazimine [3] | Diattenuation anisotropy of intracellular inclusions [5] | Accumulation in macrophages [6] | Diattenuation anisotropy of intracellular inclusions [7] |
| --- | --- | --- | --- | --- | --- | --- | --- | --- | --- | --- |
| CC(CN=c1cc2n(-c3ccc(Cl)cc3)c3ccccc3nc-2cc1Nc1ccc(Cl)cc1)c1ccccc1 (centres unmarked) [Compound T] | localized at the periphery of the cell nuclei | localized at the periphery of the cell nuclei | Moderate | Faint orange perinuclear vesicles are present in live cells | Staining not observed in fixed cells |  |  |  |  |  |
| OCCN=c1cc2n(-c3ccc(Cl)cc3)c3ccccc3nc-2cc1Nc1ccc(Cl)cc1 [I] |  |  | Excellent | Dark brown, crystal-like inclusions present in live cells | absent in fixed cells | 5.40 | comparable in morphology and intensity to those of clofazimine |  |  |  |
| Oc1ccc(CCN=c2cc3n(-c4ccc(Cl)cc4)c4ccccc4nc-3cc2Nc2ccc(Cl)cc2)cc1 [Q] |  |  | Excellent | Purple-black dense cytoplasmic inclusions in live cells | absent in fixed cells |  | more prominent staining patterns | higher diattenuation anisotropy | greatest accumulation | higher diattenuation anisotropy |
